What was measured:
Assay in all cases: relative viability (nuclei count vs DMSO), 5 days (fraction); higher = more cells survive
Kobe2602 + Navitoclax = compound: C1=CC(=CC=C1NC(=S)NNC2=C(C=C(C=C2[N+](=O)[O-])C(F)(F)F)[N+](=O)[O-])F [Kobe2602] + CC1(C)CCC(c2ccc(Cl)cc2)=C(CN2CCN(c3ccc(C(=O)NS(=O)(=O)c4ccc(N[C@H](CCN5CCOCC5)CSc5ccccc5)c(S(=O)(=O)C(F)(F)F)c4)cc3)CC2)C1 [Navitoclax] (partner 0.5 µM)
In short: (§1)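 Each reported value is a median over duplicate plates. It expresses relative viability: treated-well nuclei count divided by vehicle-well nuclei count. Lung cancer cell lines in 1536-well plates were dosed by pin tool a day after seeding, alone with one drug or with a fixed anchor-drug dose plus five library-drug doses (not always all listed) in √10 steps, and nuclei were counted after 5 days.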

Kobe2602 + Foretinib = compound: C1=CC(=CC=C1NC(=S)NNC2=C(C=C(C=C2[N+](=O)[O-])C(F)(F)F)[N+](=O)[O-])F [Kobe2602] + COc1cc2c(Oc3ccc(NC(=O)C4(C(=O)Nc5ccc(F)cc5)CC4)cc3F)ccnc2cc1OCCCN1CCOCC1 [Foretinib] (partner 0.25 µM)
In short: as §1

Kobe2602 + Dasatinib = compound: C1=CC(=CC=C1NC(=S)NNC2=C(C=C(C=C2[N+](=O)[O-])C(F)(F)F)[N+](=O)[O-])F [Kobe2602] + Cc1nc(Nc2ncc(C(=O)Nc3c(C)cccc3Cl)s2)cc(N2CCN(CCO)CC2)n1 [Dasatinib] (partner 0.075 µM)
In short: as §1

[1] = compound: COc1cc2nccc(Oc3ccc(NC(=O)C4(C(=O)Nc5ccc(F)cc5)CC4)cc3)c2cc1OC [Cabozantinib] + C[C@@H](Oc1cc(-c2cnn(C3CCNCC3)c2)cnc1N)c1c(Cl)ccc(F)c1Cl [Crizotinib] (partner 1 µM)
In short: as §1

UMC-11
relative viability (Kobe2602 + Navitoclax; first compound 0.2 µM): 0.322
relative viability (Kobe2602 + Navitoclax; first compound 0.6325 µM): 0.327
relative viability (Kobe2602 + Navitoclax; first compound 2 µM): 0.292
relative viability (Kobe2602 + Navitoclax; first compound 6.325 µM): 0.312
relative viability (Kobe2602 + Navitoclax; first compound 20 µM): 0.316
relative viability (Kobe2602 + Foretinib; first compound 0.2 µM): 1.03
relative viability (Kobe2602 + Foretinib; first compound 0.6325 µM): 0.957
relative viability (Kobe2602 + Foretinib; first compound 2 µM): 0.96
relative viability (Kobe2602 + Foretinib; first compound 6.325 µM): 0.953
relative viability (Kobe2602 + Foretinib; first compound 20 µM): 1.08
relative viability (Kobe2602 + Dasatinib; first compound 0.2 µM): 0.49
relative viability (Kobe2602 + Dasatinib; first compound 0.6325 µM): 0.449
relative viability (Kobe2602 + Dasatinib; first compound 2 µM): 0.449
relative viability (Kobe2602 + Dasatinib; first compound 6.325 µM): 0.451
relative viability (Kobe2602 + Dasatinib; first compound 20 µM): 0.452
relative viability ([1]; first compound 0.02 µM): 0.609
relative viability ([1]; first compound 0.06325 µM): 0.592
relative viability ([1]; first compound 0.2 µM): 0.717
relative viability ([1]; first compound 0.6325 µM): 0.668
relative viability ([1]; first compound 2 µM): 0.578

— the supplement of paper PMC10307832
